In patent publication US10913750B2, “Tubulin-binding compounds, compositions and uses related thereto” (The Regents of the University of California, priority 2015, dated 2021):

Columns and labels:
Assay type in all cases: cell-based
[1] = test system: M395; test: CellTiter-Glo cell viability, M395
Procedure: (§1) To determine if MI-181 had broad anti-cancer activity, we treated a diverse panel of cancer cell lines including cervical adenocarcinoma (HeLa), breast adenocarcinoma (MCF7), melanoma (M233), osteosarcoma (U205), acute lymphoblastic leukemia (CCRF-CEM), non-small cell lung carcinoma (NCI-H460), and breast adenocarcinoma (MCF7) with MI-181 and determined its cell viability IC50 (FIGS. 13A and 13B). […] Therefore, the efficacy of MI-181 was analyzed in a panel of melanoma cell lines with defined genetic backgrounds including BRAF^V600E and NRAS^Q61L mutations and varied sensitivities to Vemurafenib (BRAF inhibitor) and Trametinib (MEK inhibitor), which are currently used to treat BRAF^V600E melanomas^43,44 (FIG. 10c). […] As a general trend BRAF^V600E cell lines were slightly more sensitive than NRAS^Q61L cell lines and MI-181 was effective in Vemurafenib and Trametinib resistant cell lines (FIG. 10c and Table 3). Finally, we tested the ability of MI-181 to inhibit melanoma colony formation using the M233 and M308 cell lines (both resistant to Vemurafenib). Indeed, MI-181 was a potent inhibitor of colony formation (percentage colony formation for 10 nM MI-181=0.2±0.1 and 0.8±0.7; for 10 nM colchicine=0.1±0.06 and 1.5±0.5; and for 10 nM Vemurafenib=94±7 and 102±5) (FIG. 10d). Thus, MI-181 is a potent inhibitor of melanoma cell lines. […]

[2] = test system: M308; test: CellTiter-Glo cell viability, M308
Procedure: as §1

[3] = test system: diverse panel of cancer cell lines; test: Cell viability in a diverse panel of cancer cell lines; details: HeLa, M233, U205, CCRF-CEM, NCI-H460; MCF7 excepted; read-out: cell viability IC50 across most cancer cell lines
Procedure: as §1

[4] = test system: M409; test: CellTiter-Glo cell viability, M409
Procedure: as §1

[5] = test system: M375; test: CellTiter-Glo cell viability, M375
Procedure: as §1

[6] = test system: M243; test: CellTiter-Glo cell viability, M243
Procedure: as §1

[7] = test system: M376; test: CellTiter-Glo cell viability, M376
Procedure: as §1

[8] = test system: M229; test: CellTiter-Glo cell viability, M229
Procedure: as §1

[9] = test system: M244; test: CellTiter-Glo cell viability, M244
Procedure: as §1

Which results are given for `Cc1cc2nc(/C=C/c3cccnc3)sc2cc1C` [MI-181]?
IC50 [1]: 23.4 nM; IC50 [2]: 28.3 nM; IC50 [3]: 30 to 360 nM; IC50 [4]: 41.9 nM; IC50 [5]: 58.2 nM; IC50 [6]: 26 nM; IC50 [7]: 39.7 nM; IC50 [8]: 36.7 nM; IC50 [9]: 41.5 nM
